Experimental data: the supplement of paper PMC10307832

Key:
Assay in all cases: relative viability (nuclei count vs DMSO), 5 days (fraction); higher = more cells survive
[1] = compound: C1=CC=C2C(=C1)N=C(S2)C(C#N)C3=NC(=NC=C3)NCCC4=CN=CC=C4 + COc1cc2c(Oc3ccc(NC(=O)C4(C(=O)Nc5ccc(F)cc5)CC4)cc3F)ccnc2cc1OCCCN1CCOCC1 [Foretinib] (partner 0.25 µM)
Outline: (§1)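 After 5 days of treatment, lung cancer cells in 1536-well plates were fixed and stained in a single step (final 0.05% Triton X-100, 1% formaldehyde, 1 ug/ml Hoechst) and their nuclei counted on 4× images. Treatment had been applied by pin tool the day after seeding as one drug alone or as a fixed anchor-drug dose with five library-drug doses (not always all listed) in √10 steps. Relative viability is the nuclei count of treated wells divided by that of vehicle wells, and values are medians of duplicate plates.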

[2] = compound: C1=CC=C2C(=C1)N=C(S2)C(C#N)C3=NC(=NC=C3)NCCC4=CN=CC=C4 + CS(=O)(=O)CCNCc1ccc(-c2ccc3ncnc(Nc4ccc(OCc5cccc(F)c5)c(Cl)c4)c3c2)o1 [Lapatinib] (partner 2 µM)
Outline: as §1

Vandetanib + Navitoclax = compound: COc1cc2/c(=N/c3ccc(Br)cc3F)nc[nH]c2cc1OCC1CCN(C)CC1 [Vandetanib] + CC1(C)CCC(c2ccc(Cl)cc2)=C(CN2CCN(c3ccc(C(=O)NS(=O)(=O)c4ccc(N[C@H](CCN5CCOCC5)CSc5ccccc5)c(S(=O)(=O)C(F)(F)F)c4)cc3)CC2)C1 [Navitoclax] (partner 0.5 µM)
Outline: as §1

Vandetanib + Decitabine = compound: COc1cc2/c(=N/c3ccc(Br)cc3F)nc[nH]c2cc1OCC1CCN(C)CC1 [Vandetanib] + Nc1ncn([C@H]2C[C@H](O)[C@@H](CO)O2)c(=O)n1 [Decitabine] (partner 2 µM)
Outline: as §1

Row | Cell Line | relative viability ([1]; first compound 0.005 µM) | relative viability ([1]; first compound 0.01581 µM) | relative viability ([1]; first compound 0.05 µM) | relative viability ([1]; first compound 0.1581 µM) | relative viability ([1]; first compound 0.5 µM) | relative viability ([2]; first compound 0.005 µM) | relative viability ([2]; first compound 0.01581 µM) | relative viability ([2]; first compound 0.05 µM) | relative viability ([2]; first compound 0.1581 µM) | relative viability ([2]; first compound 0.5 µM) | relative viability (Vandetanib + Navitoclax; first compound 0.02 µM) | relative viability (Vandetanib + Navitoclax; first compound 0.06325 µM) | relative viability (Vandetanib + Navitoclax; first compound 0.2 µM) | relative viability (Vandetanib + Navitoclax; first compound 0.6325 µM) | relative viability (Vandetanib + Navitoclax; first compound 2 µM) | relative viability (Vandetanib + Decitabine; first compound 0.02 µM) | relative viability (Vandetanib + Decitabine; first compound 0.06325 µM) | relative viability (Vandetanib + Decitabine; first compound 0.2 µM) | relative viability (Vandetanib + Decitabine; first compound 0.6325 µM) | relative viability (Vandetanib + Decitabine; first compound 2 µM)
1 | NCI-H2405 | 1.02 | 1.04 | 1.04 | 1.07 | 1 | 1.05 | 0.817 | 1.11 | 1.11 | 1.02 | 0.786 | 0.426 | 0.889 | 1.23 | 0.696 | 0.749 | 0.687 | 0.747 | 0.8 | 0.718
2 | NCI-H3122 | 0.839 | 0.87 | 0.917 | 1.05 | 0.969 | 1.01 | 1 | 1.06 | 1 | 1.03 | 0.99 | 0.998 | 1.03 | 0.994 | 1.03 | 0.454 | 0.39 | 0.178 | 0.456 | 0.481
3 | PC-3 [JPC-3] | 0.984 | 1.12 | 1.07 | 1.14 | 0.961 | 0.439 | 0.441 | 0.423 | 0.484 | 0.429 | 0.783 | 0.738 | 0.777 | 0.719 | 0.451 | 0.876 | 0.847 | 0.72 | 0.661 | 0.488
4 | PC-14 | 0.899 | 1.05 | 0.917 | 1.08 | 0.819 | 0.305 | 0.331 | 0.303 | 0.454 | 0.296 | 1.02 | 0.953 | 1.07 | 0.504 | 0.307 | 0.246 | 0.197 | 0.175 | 0.171 | 0.159
5 | RERF-LC-KJ | 0.966 | 0.826 | 0.86 | 0.882 | 0.762 | 0.982 | 0.934 | 0.77 | 0.883 | 0.732 | 0.952 | 0.746 | 0.835 | 1.06 | 0.605 | 0.711 | 0.74 | 0.737 | 0.665 | 0.555
6 | SK-LU-1 | 0.749 | 0.824 | 0.867 | 0.991 | 0.884 |  | 0.856 | 0.934 | 1.18 | 0.832 | 0.954 | 0.571 | 0.794 | 0.953 | 0.789 | 0.605 | 0.562 | 0.658 | 0.612 | 0.654
7 | SK-MES-1 | 0.836 | 1.07 | 0.863 | 1.11 | 0.993 | 0.455 | 0.542 | 0.408 | 0.473 | 0.445 | 1.26 | 1.04 | 1.24 | 1.27 | 1.2 | 0.419 | 0.38 | 0.411 | 0.276 | 0.252
8 | SW 1573 | 0.963 | 0.792 | 0.949 | 0.994 | 0.892 | 1.12 | 1.13 | 1.04 | 1.35 | 1.12 | 1.03 | 0.895 | 1.25 | 0.862 | 0.993 | 0.467 | 0.481 | 0.594 | 0.508 | 0.393
